Legend:
Type in all cases: in vivo
Settings in all cases: 250 g/ha, evaluated after 13 days
[1] = test system: Amaranthus palmeri (AMAPA); test: Post-emergence herbicide glasshouse test
Protocol: (§1) Seeds of a variety of test species are sown in standard soil in pots Amaranthus palmeri (AMAPA), Amaranthus retoflexus (AMARE), Echinochloa crus-galli (ECHCG), Ipomoea hederacea (IPOHE)). After cultivation for one day (pre-emergence) or after 8 days cultivation (post-emergence) under controlled conditions in a glasshouse (at 24/16° C., day/night; 14 hours light; 65% humidity), the plants are sprayed with an aqueous spray solution derived from the formulation of the technical active ingredient in acetone/water (50:50) solution containing 0.5% Tween 20 (polyoxyethelyene sorbitan monolaurate, CAS RN 9005-64-5). Compounds are applied at 250 g/ha unless otherwise stated. The test plants are then grown in a glasshouse under controlled conditions in a glasshouse (at 24/16° C., day/night; 14 hours light; 65% humidity) and watered twice daily. After 13 days for pre and post-emergence, the test is evaluated for the percentage damage caused to the plant. The biological activities are shown in the following table on a five-point scale (5=81-100%; 4=61-80%; 3=41-60%; 2=21-40%; 1=0-20%).

[2] = test system: Amaranthus retoflexus (AMARE); test: Post-emergence herbicide glasshouse test
Protocol: as §1

[3] = test system: Echinochloa crus-galli (ECHCG); test: Post-emergence herbicide glasshouse test
Protocol: as §1

[4] = test system: Ipomoea hederacea (IPOHE); test: Post-emergence herbicide glasshouse test
Protocol: as §1

[5] = test system: Amaranthus palmeri (AMAPA); test: Pre-emergence herbicide glasshouse test
Protocol: as §1

[6] = test system: Amaranthus retoflexus (AMARE); test: Pre-emergence herbicide glasshouse test
Protocol: as §1

[7] = test system: Echinochloa crus-galli (ECHCG); test: Pre-emergence herbicide glasshouse test
Protocol: as §1

[8] = test system: Ipomoea hederacea (IPOHE); test: Pre-emergence herbicide glasshouse test
Protocol: as §1

SMILES	percentage damage caused to the plant, AMAPA (five-point scale) [1]	percentage damage caused to the plant, AMARE (five-point scale) [2]	percentage damage caused to the plant, ECHCG (five-point scale) [3]	percentage damage caused to the plant, IPOHE (five-point scale) [4]	percentage damage caused to the plant, AMAPA (five-point scale) [5]	percentage damage caused to the plant, AMARE (five-point scale) [6]	percentage damage caused to the plant, ECHCG (five-point scale) [7]	percentage damage caused to the plant, IPOHE (five-point scale) [8]
CCn1cc(Cn2cc(C(F)(F)F)nc2-c2ccc(Cl)nc2)nn1 [Compound 1.110]	4 (4=61-80%)	4 (4=61-80%)	1 (1=0-20%)	4 (4=61-80%)	5 (5=81-100%)	5 (5=81-100%)	3 (3=41-60%)	5 (5=81-100%)
Cn1nnc(Cn2cc(C(F)(F)F)nc2-c2ccc(Cl)nc2)c1C(F)F [Compound 1.070]	4 (4=61-80%)	4 (4=61-80%)	1 (1=0-20%)	4 (4=61-80%)	5 (5=81-100%)	5 (5=81-100%)	1 (1=0-20%)	4 (4=61-80%)
COCCc1noc(Cn2cc(C(F)(F)F)nc2-c2ccc(C(F)(F)F)cc2)n1 [Compound 1.011]	1 (1=0-20%)	1 (1=0-20%)	1 (1=0-20%)	1 (1=0-20%)	1 (1=0-20%)	1 (1=0-20%)	1 (1=0-20%)	1 (1=0-20%)
CCc1cc(Cn2cc(C(F)(F)F)nc2-c2ccc(Cl)nc2)no1 [Compound 1.046]	5 (5=81-100%)	5 (5=81-100%)	4 (4=61-80%)	4 (4=61-80%)	5 (5=81-100%)	5 (5=81-100%)	5 (5=81-100%)	5 (5=81-100%)
CC(C)(C)c1csc(Cn2cc(C(F)(F)F)nc2-c2ccc(Cl)nc2)n1 [Compound 1.137]	1 (1=0-20%)	1 (1=0-20%)	1 (1=0-20%)	1 (1=0-20%)	1 (1=0-20%)	1 (1=0-20%)	1 (1=0-20%)	1 (1=0-20%)
Cc1nnc(Cn2cc(C(F)(F)F)nc2-c2ccc(C(F)(F)F)cc2)s1 [Compound 1.007]	5 (5=81-100%)	5 (5=81-100%)	5 (5=81-100%)	5 (5=81-100%)	5 (5=81-100%)	5 (5=81-100%)	5 (5=81-100%)	5 (5=81-100%)
Cc1nc(Cn2cc(C(F)(F)F)nc2-c2cnc(Cl)c(F)c2)no1 [Compound 1.167]	5 (5=81-100%)	5 (5=81-100%)	5 (5=81-100%)	4 (4=61-80%)	5 (5=81-100%)	5 (5=81-100%)	5 (5=81-100%)	5 (5=81-100%)
Cc1noc(Cn2cc(C(F)(F)F)nc2-c2ccc(C(F)(F)F)cc2)n1 [Compound 1.008]	4 (4=61-80%)	4 (4=61-80%)	2 (2=21-40%)	4 (4=61-80%)	5 (5=81-100%)	5 (5=81-100%)	1 (1=0-20%)	3 (3=41-60%)
FC(F)(F)c1cn(Cc2ncco2)c(-c2ccc(Cl)nc2)n1 [Compound 1.118]	3 (3=41-60%)	3 (3=41-60%)	1 (1=0-20%)	3 (3=41-60%)	5 (5=81-100%)	5 (5=81-100%)	1 (1=0-20%)	5 (5=81-100%)
CCc1nc(Cn2cc(C(F)(F)F)nc2-c2ccc(Cl)nc2)no1 [Compound 1.090]	5 (5=81-100%)	5 (5=81-100%)	4 (4=61-80%)	5 (5=81-100%)	5 (5=81-100%)	5 (5=81-100%)	4 (4=61-80%)	5 (5=81-100%)
FC(F)(F)c1cn(Cc2ccns2)c(-c2ccc(Cl)nc2)n1 [Compound 1.113]	1 (1=0-20%)	1 (1=0-20%)	1 (1=0-20%)	1 (1=0-20%)	1 (1=0-20%)	1 (1=0-20%)	1 (1=0-20%)	1 (1=0-20%)
Cc1coc(Cn2cc(C(F)(F)F)nc2-c2ccc(Cl)nc2)n1 [Compound 1.096]	5 (5=81-100%)	5 (5=81-100%)	4 (4=61-80%)	3 (3=41-60%)	5 (5=81-100%)	5 (5=81-100%)	5 (5=81-100%)	5 (5=81-100%)
Cn1cnc(Cn2cc(C#N)nc2-c2cnc(Cl)c(F)c2)n1 [Compound 1.182]	4 (4=61-80%)	5 (5=81-100%)	3 (3=41-60%)	3 (3=41-60%)	5 (5=81-100%)	5 (5=81-100%)	4 (4=61-80%)	5 (5=81-100%)

Reference: patent US20260125360A1, “HERBICIDAL IMIDAZOLE COMPOUNDS” (SYNGENTA CROP PROTECTION AG, priority 2022, published 2026)
